From patent US7053177B1, “Random peptides that bind to gastro-intestinal tract (GIT) transport receptors and related methods” (Cytogen Corporation, priority 1997, dated 2006)
Ends that are not written are not given here. Peptide text beside a SMILES is read from it. * marks the point of attachment. Dansyl = CN(C)c1cccc2c(S(=O)(=O)*)cccc12; K(dns) = dansyl-lysine

System: P100 membrane fraction of Caco-2 cells
Assay: Dansylated peptide ELISA: relative binding of PAX2 and HAX42 peptides to P100 fractions (ratio to ZElan021)
Settings: ratio to ZElan021 = 1.00
Protocol: The peptides and proteins were analyzed by a dansylated peptide ELISA method in which 96 well plates were coated overnight at 4° C. with 100 μl/well coating protein (normally 100 μg/ml P100 membrane fraction) in 0.05M carbonate buffer pH9.6. Nonspecific binding was blocked using 200 μl/well, 2% Marvel/PBS for 2 hours at 37° C. prior to incubation with dansylated peptides. The plates were washed three times with PBS/0.05% Tween 20 and after each subsequent incubation step. […] A buffer blank control was included to ensure that background binding to plastic was not due to the antibodies used in the assay system. […] Plates were developed using 75 μl/well Bionostics TMB substrate and incubated for approximately 10 minutes. The developing reaction was stopped using Bionostics Red Stop solution (25 μl/well), and the optical density of the plates was read at 650 nm. […]

H2N—K(dns)SDHALGTNLRSDNAK ({K(dns)}-SDHALGTNLRSDNAK; not fully specified (C-terminus); printed as H2N—K(dns)SDHALGTNLRSDNAK) [ZElan089]
Binding value at 25 μg/ml (HAX42 peptides, first column): 0.55
Binding value at 25 μg/ml (HAX42 peptides, second column): 0.44
Binding value at 25 μg/ml (HAX42 peptides, third column): 0.49

CC(C)C[C@H](NC(=O)[C@H](CCCNC(=N)N)NC(=O)[C@H](CCCNC(=N)N)NC(=O)[C@@H](N)CCCCNS(=O)(=O)c1cccc2c(N(C)C)cccc12)C(=O)N[C@@H](CCCNC(=N)N)C(=O)N[C@H](C(=O)N[C@@H](CCCNC(=N)N)C(=O)N[C@@H](CO)C(=O)N[C@@H](CCCNC(=N)N)C(=O)N1CCC[C@H]1C(=O)N[C@@H](CC(N)=O)C(N)=O)[C@@H](C)O [ZElan056] (H-K(Dansyl)RRLRTRSRPN-NH2)
Binding value at 20 μg/ml (PAX2 peptides, first column): 0.00
Binding value at 20 μg/ml (PAX2 peptides, second column): 0.16
Binding value at 50 μg/ml (PAX2 peptides, first column): 0.21
Binding value at 50 μg/ml (PAX2 peptides, second column): 0.21

CC(C)C[C@H](NC(=O)[C@H](C)NC(=O)[C@H](Cc1c[nH]cn1)NC(=O)[C@H](CC(=O)O)NC(=O)[C@H](CO)NC(=O)[C@@H](N)CCCCNS(=O)(=O)c1cccc2c(N(C)C)cccc12)C(=O)NCC(=O)N[C@H](C(=O)N[C@@H](CC(N)=O)C(=O)N[C@@H](CC(C)C)C(=O)N[C@@H](CCCNC(=N)N)C(=O)N[C@@H](CO)C(=O)N[C@@H](CC(=O)O)C(=O)N[C@@H](CC(N)=O)C(=O)N[C@@H](C)C(=O)N[C@@H](CCCCN)C(=O)N[C@@H](CCC(=O)O)C(=O)N1CCC[C@H]1C(=O)NCC(N)=O)[C@@H](C)O [ZElan062] (H-K(Dansyl)SDHALGTNLRSDNAKEPG-NH2)
Binding value at 20 μg/ml (HAX42 peptides): 0.11
Binding value at 50 μg/ml (HAX42 peptides, first column): 0.42
Binding value at 50 μg/ml (HAX42 peptides, second column): 0.34

CC(C)C[C@H](NC(=O)[C@H](CC(N)=O)NC(=O)[C@@H](N)CCCCNS(=O)(=O)c1cccc2c(N(C)C)cccc12)C(=O)N[C@@H](CCCNC(=N)N)C(=O)N[C@@H](CO)C(=O)N[C@@H](CC(=O)O)C(=O)N[C@@H](CC(N)=O)C(=O)N[C@@H](C)C(=O)N[C@@H](CCCCN)C(=O)N[C@@H](CCC(=O)O)C(=O)N1CCC[C@H]1C(=O)NCC(=O)N[C@@H](CC(=O)O)C(=O)N[C@@H](Cc1ccc(O)cc1)C(=O)N[C@@H](CC(N)=O)C(=O)N[C@@H](CS)C(=O)N[C@@H](CS)C(=O)NCC(=O)N[C@@H](CC(N)=O)C(=O)NCC(=O)N[C@@H](CC(N)=O)C(=O)N[C@@H](CO)C(=O)N[C@H](C(=O)NCC(=O)N[C@@H](CCCNC(=N)N)C(=O)N[C@@H](CCCCN)C(=O)N[C@H](C(=O)N[C@@H](Cc1ccccc1)C(=O)N[C@@H](CC(N)=O)C(=O)N[C@@H](CCCNC(=N)N)C(N)=O)C(C)C)[C@@H](C)O [ZElan071] (H-K(Dansyl)NLRSDNAKEPGDYNCCGNGNSTGRKVFNR-NH2)
Binding value at 50 μg/ml (HAX42 peptides, first column): 0.89
Binding value at 50 μg/ml (HAX42 peptides, second column): 0.75

CC[C@H](C)[C@H](NC(=O)[C@H](C)NC(=O)[C@H](CO)NC(=O)[C@@H]1CCCN1C(=O)[C@H](CCCNC(=N)N)NC(=O)[C@H](CCCNC(=N)N)NC(=O)[C@H](CC(N)=O)NC(=O)[C@H](Cc1ccccc1)NC(=O)[C@@H](NC(=O)[C@H](CCCCN)NC(=O)[C@H](CCCNC(=N)N)NC(=O)CNC(=O)[C@@H](NC(=O)[C@H](CO)NC(=O)[C@H](CC(N)=O)NC(=O)CNC(=O)[C@H](CC(N)=O)NC(=O)CNC(=O)[C@H](CS)NC(=O)[C@H](CS)NC(=O)[C@H](CC(N)=O)NC(=O)[C@H](Cc1ccc(O)cc1)NC(=O)[C@H](CC(=O)O)NC(=O)CNC(=O)[C@@H]1CCCN1C(=O)[C@@H](N)CCCCNS(=O)(=O)c1cccc2c(N(C)C)cccc12)[C@@H](C)O)C(C)C)C(=O)N1CCC[C@H]1C(=O)N[C@H](C(N)=O)[C@@H](C)O [ZElan072] (H-K(Dansyl)PGDYNCCGNGNSTGRKVFNRRPSAIPT-NH2)
Binding value at 20 μg/ml (HAX42 peptides): 0.83
Binding value at 50 μg/ml (HAX42 peptides, first column): 0.61
Binding value at 50 μg/ml (HAX42 peptides, second column): 0.88

CC(C)C[C@H](NC(=O)[C@H](CCCNC(=N)N)NC(=O)[C@H](CCCNC(=N)N)NC(=O)[C@H](CC(N)=O)NC(=O)[C@H](Cc1c[nH]cn1)NC(=O)[C@H](CO)NC(=O)[C@H](C)NC(=O)[C@@H](N)CCCCNS(=O)(=O)c1cccc2c(N(C)C)cccc12)C(=O)N[C@@H](CCCNC(=N)N)C(=O)N[C@H](C(=O)N[C@@H](CCCNC(=N)N)C(N)=O)[C@@H](C)O [ZElan073] (H-K(Dansyl)ASHNRRLRTR-NH2)
Binding value at 20 μg/ml (PAX2 peptides, first column): 0.07
Binding value at 50 μg/ml (Jackson Ab) (PAX2 peptides): 0.66
Binding value at 50 μg/ml (Southern Ab) (PAX2 peptides): 0.49
Binding value at 50 μg/ml (PAX2 peptides, first column): −0.11
Binding value at 50 μg/ml (PAX2 peptides, second column): 0.49

CC(C)C[C@H](NC(=O)[C@H](CCCNC(=N)N)NC(=O)[C@H](CCCNC(=N)N)NC(=O)[C@H](CC(N)=O)NC(=O)[C@H](Cc1c[nH]cn1)NC(=O)[C@H](CO)NC(=O)[C@H](CO)NC(=O)[C@@H](N)CCCCNS(=O)(=O)c1cccc2c(N(C)C)cccc12)C(=O)N[C@@H](CCCNC(=N)N)C(=O)N[C@@H](C)C(=O)N[C@@H](CCCNC(=N)N)C(N)=O [ZElan081] (H-K(Dansyl)SSHNRRLRAR-NH2)
Binding value at 20 μg/ml (PAX2 peptides, first column): 0.01
Binding value at 50 μg/ml (PAX2 peptides, first column): 0.89
Binding value at 50 μg/ml (PAX2 peptides, second column): 0.47

H2N—K(dns)PGDYNCCGNG ({K(dns)}-PGDYNCCGNG-NH2; cysteine pairing not given here) [ZElan092]
Binding value at 25 μg/ml (HAX42 peptides, first column): 1.41
Binding value at 25 μg/ml (HAX42 peptides, second column): 1.90
Binding value at 25 μg/ml (HAX42 peptides, third column): 0.91

CC(C)C[C@H](NC(=O)[C@H](CCCNC(=N)N)NC(=O)[C@H](CCCNC(=N)N)NC(=O)[C@H](CC(N)=O)NC(=O)[C@H](Cc1c[nH]cn1)NC(=O)[C@H](CO)NC(=O)[C@H](CO)NC(=O)[C@H](Cc1c[nH]cn1)NC(=O)[C@H](CCCCN)NC(=O)[C@H](C)NC(=O)[C@H](CC(N)=O)NC(=O)[C@@H](NC(=O)[C@@H](N)CCCCNS(=O)(=O)c1cccc2c(N(C)C)cccc12)[C@@H](C)O)C(=O)N[C@@H](CCCNC(=N)N)C(=O)N[C@H](C(=O)N[C@@H](CCCNC(=N)N)C(=O)N[C@@H](CO)C(=O)N[C@@H](CCCNC(=N)N)C(=O)N1CCC[C@H]1C(=O)N[C@@H](CC(N)=O)C(N)=O)[C@@H](C)O [ZElan032] (H-K(Dansyl)TNAKHSSHNRRLRTRSRPN-NH2)
Binding value at 50 μg/ml (PAX2 peptides, first column): 0.95

CC(C)C[C@H](NC(=O)[C@H](CCCNC(=N)N)NC(=O)[C@H](CO)NC(=O)[C@@H](NC(=O)[C@H](CCCCN)NC(=O)[C@H](CC(N)=O)NC(=O)[C@H](CCCNC(=N)N)NC(=O)[C@@H](NC(=O)[C@H](CC(N)=O)NC(=O)[C@H](CCCNC(=N)N)NC(=O)[C@@H](N)CCCCNS(=O)(=O)c1cccc2c(N(C)C)cccc12)[C@@H](C)O)[C@@H](C)O)C(=O)N[C@@H](CO)C(=O)N[C@@H](C)C(=O)N[C@@H](CC(N)=O)C(=O)N1CCC[C@H]1C(=O)N[C@@H](Cc1c[nH]cn1)C(=O)N[C@@H](CCCNC(=N)N)C(=O)N[C@@H](CO)C(=O)N[C@@H](Cc1c[nH]cn1)C(=O)N[C@@H](CCCNC(=N)N)C(N)=O [ZElan084] (H-K(Dansyl)RNTRNKTSRLSANPHRSHR-NH2)
Binding value at 20 μg/ml (PAX2 peptides, second column): 0.93
Binding value at 50 μg/ml (PAX2 peptides, second column): 0.77

CC(C)C[C@H](NC(=O)[C@H](C)NC(=O)[C@H](CCCNC(=N)N)NC(=O)[C@H](CC(N)=O)NC(=O)[C@H](Cc1c[nH]cn1)NC(=O)[C@H](CO)NC(=O)[C@H](CO)NC(=O)[C@@H](N)CCCCNS(=O)(=O)c1cccc2c(N(C)C)cccc12)C(=O)N[C@@H](CCCNC(=N)N)C(=O)N[C@H](C(=O)N[C@@H](CCCNC(=N)N)C(N)=O)[C@@H](C)O [ZElan078] (H-K(Dansyl)SSHNRALRTR-NH2)
Binding value at 20 μg/ml (PAX2 peptides, first column): 0.11
Binding value at 50 μg/ml (Jackson Ab) (PAX2 peptides): 0.68
Binding value at 50 μg/ml (Southern Ab) (PAX2 peptides): 0.47
Binding value at 50 μg/ml (PAX2 peptides, first column): 0.87
Binding value at 50 μg/ml (PAX2 peptides, second column): 0.69
